The results in this text go back to PubChem BioAssay (NCI).

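Tested at 5 concentrations; 48 h exposure; 96-well plates; endpoints linearly interpolated, else capped at highest concentration. GI50 marks 50% less growth. The concentration for full growth arrest is given as TGI.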

Test systems include OVCAR-8 ovarian; NCI-H460 lung; SR leukemia; A498 renal; SF-295 CNS; HCC-2998 colon; SF-539 CNS; SNB-19 CNS; MALME-3M melanoma.
Holding throughout (experiment): NCI tumour cell line growth inhibition, 48 h

As to `CCOC(=O)C1(C(=O)OCC)CC(=O)[C@@]2(C1)OCC[C@H]1OC(=O)C[C@H]12`, the TGI with OVCAR-8 ovarian, with NCI-H460 lung, with SR leukemia, in the assay on A498 renal, with SF-295 CNS and with HCC-2998 colon was above 100 µM throughout. For the same compound, the TGI in the assay with SF-539 CNS, with SNB-19 CNS and with MALME-3M melanoma was above 100 µM in each case.
As for `Nc1nc(N)c2nnn(C[C@H]3CC[C@@H](CO)C3)c2n1`, the TGI in the assay on OVCAR-8 ovarian, with NCI-H460 lung, in the assay with SR leukemia, in the assay on A498 renal, with SF-295 CNS and in the assay with HCC-2998 colon was above 100 µM each time. Further, the TGI with SF-539 CNS, in the assay with SNB-19 CNS and in the assay with MALME-3M melanoma was above 100 µM in each case.
With `CC1=C(C(=O)Nc2ccccc2)C(c2ccc(C)o2)C(C#N)=C(SCc2ccccc2)N1` (configuration not stated), the TGI with OVCAR-8 ovarian is above 100 µM; in the assay on NCI-H460 lung it was above 100 µM; in the assay on SR leukemia, above 68.6 µM; with A498 renal it was above 100 µM; in the assay on SF-295 CNS, above 100 µM; in the assay on HCC-2998 colon, above 100 µM. Besides, the TGI with SF-539 CNS, in the assay with SNB-19 CNS and in the assay on MALME-3M melanoma was above 100 µM throughout.
Take `Cc1ccc([N+](=O)[O-])cc1S(=O)(=O)Nc1ccc(C2=NNC(c3cccs3)C2)cc1` (configuration not stated): the TGI with OVCAR-8 ovarian is above 100 µM; in the assay on NCI-H460 lung, above 100 µM; in the assay on SR leukemia, 78.8 µM; with A498 renal it was 93.1 µM; in the assay on SF-295 CNS, 63.9 µM; in the assay with HCC-2998 colon it was above 100 µM. Further, the TGI in the assay on SF-539 CNS, in the assay on SNB-19 CNS and with MALME-3M melanoma was above 100 µM in each case.
With `Oc1ccc2ccccc2c1N=Nc1ccccn1`, the GI50 is 0.447 µM with OVCAR-8 ovarian; 0.532 µM with NCI-H460 lung; 0.356 µM with SR leukemia; 2.39 µM with A498 renal; 0.8 µM in the assay on SF-295 CNS; 2.35 µM in the assay with HCC-2998 colon. The results for the GI50 in the assay with SF-539 CNS, in the assay on SNB-19 CNS and in the assay with MALME-3M melanoma were 1.6 µM, 2.53 µM and 2.07 µM, respectively. In addition, the TGI in the assay on OVCAR-8 ovarian was above 27.4 µM; in the assay on NCI-H460 lung, 5.49 µM; in the assay on SR leukemia, 10.4 µM; in the assay with A498 renal it was 20 µM; in the assay on SF-295 CNS it was 13.5 µM; in the assay on HCC-2998 colon, above 100 µM. The TGI was above 28.4 µM with SF-539 CNS, above 100 µM in the assay on SNB-19 CNS and 10.6 µM with MALME-3M melanoma.
Consider `Cc1ccc(/C=N/Nc2nncc3ccccc23)s1`, for which the TGI in the assay on OVCAR-8 ovarian is above 100 µM; with NCI-H460 lung it was above 100 µM; in the assay on SR leukemia it was above 100 µM; in the assay on A498 renal, above 100 µM; in the assay on SF-295 CNS, 98.2 µM; in the assay on HCC-2998 colon, above 100 µM. Further, the TGI in the assay on SF-539 CNS, with SNB-19 CNS and with MALME-3M melanoma was above 100 µM each time.
Take `CC(=O)N1N=C(N)CC1=O`: the TGI in the assay with OVCAR-8 ovarian, with NCI-H460 lung, in the assay with SR leukemia, with A498 renal, with SF-295 CNS and in the assay with HCC-2998 colon was above 100 µM throughout. Moreover, the TGI with SF-539 CNS, with SNB-19 CNS and in the assay on MALME-3M melanoma was above 100 µM in each case.
For the compound `O=C(/C=C/c1cccs1)c1cccc(C(=O)/C=C/c2cccs2)n1`, the TGI in the assay on OVCAR-8 ovarian is 19.6 µM; in the assay with NCI-H460 lung, above 100 µM; with SR leukemia, above 24.6 µM; in the assay with A498 renal it was above 100 µM; in the assay with SF-295 CNS it was above 100 µM; in the assay with HCC-2998 colon, above 100 µM. Further, the TGI in the assay on SF-539 CNS is 21.5 µM; in the assay with SNB-19 CNS, above 85 µM; in the assay with MALME-3M melanoma, above 100 µM.
Take `Nn1c(SCC(=O)NCc2ccccc2)nc2ccccc2c1=O`: the TGI in the assay with OVCAR-8 ovarian was above 100 µM; in the assay with NCI-H460 lung, above 100 µM; in the assay with SR leukemia it was 69 µM; with A498 renal, above 100 µM; with SF-295 CNS, above 100 µM; in the assay on HCC-2998 colon it was above 100 µM. The TGI with SF-539 CNS, in the assay with SNB-19 CNS and in the assay with MALME-3M melanoma was above 100 µM throughout.
For `COC(=O)[C@H](Cc1ccccc1)NP(=O)(O)OCC1OC(n2cc(C)c(=O)[nH]c2=O)CC1N=[N+]=[N-]` (some centres not stated), the TGI with OVCAR-8 ovarian, with NCI-H460 lung, in the assay with SR leukemia, with A498 renal, in the assay on SF-295 CNS and with HCC-2998 colon was above 100 µM in each case. The TGI in the assay on SF-539 CNS, in the assay with SNB-19 CNS and with MALME-3M melanoma was above 100 µM each time.
Take `CC12CC3(O)OC(O1)C1(COC(=O)c4ccccc4)C3CC21OC1OC(CO)C(O)C(O)C1O` (configuration not stated): the TGI in the assay on OVCAR-8 ovarian, in the assay on NCI-H460 lung, with SR leukemia, in the assay with A498 renal, in the assay with SF-295 CNS and in the assay on HCC-2998 colon was above 100 µM each time. Further, the TGI in the assay on SF-539 CNS, in the assay on SNB-19 CNS and in the assay on MALME-3M melanoma was above 100 µM in each case.
As for `COc1ccc(-n2c3c(c4c(CN(C)C)c(O)ccc42)C(=O)c2ccccc2C3=O)cc1`, the TGI turned out to be 20.5 µM with OVCAR-8 ovarian; 26.2 µM with NCI-H460 lung; 6.84 µM with SR leukemia; 8.47 µM with A498 renal; 33.2 µM with SF-295 CNS; 5.42 µM in the assay on HCC-2998 colon. The TGI was 3.89 µM with SF-539 CNS, above 100 µM in the assay on SNB-19 CNS and 27.1 µM with MALME-3M melanoma.
On to `N#C[C@@]12CCCC(=O)[C@@H]1[C@H]1CCC[C@H]12`, for which the TGI with OVCAR-8 ovarian was 47.5 µM; with NCI-H460 lung it was 32.8 µM; in the assay on SR leukemia, 59.5 µM; in the assay on A498 renal, 31.5 µM; in the assay on SF-295 CNS it was 44.6 µM; in the assay with HCC-2998 colon, 31.7 µM. Also, the TGI was found to be 59.9 µM in the assay with SF-539 CNS, 42.4 µM in the assay on SNB-19 CNS and 32.3 µM in the assay with MALME-3M melanoma.
In the case of `Cc1ccc(O)c(-c2csc(NCN3CCN(CNc4nc(-c5cc(C)ccc5O)cs4)CC3)n2)c1`, the TGI in the assay on OVCAR-8 ovarian, in the assay with NCI-H460 lung, with SR leukemia, in the assay with A498 renal, with SF-295 CNS and in the assay with HCC-2998 colon was above 100 µM in each case. In addition, the TGI in the assay with SF-539 CNS, in the assay on SNB-19 CNS and with MALME-3M melanoma was above 100 µM in each case.
Turning to `O=C1CCCCC[C@]12SC[C@H]1CON=C12`, the TGI is above 100 µM with OVCAR-8 ovarian; above 100 µM in the assay with NCI-H460 lung; above 100 µM in the assay with SR leukemia; 44.7 µM with A498 renal; above 100 µM with SF-295 CNS; above 100 µM in the assay on HCC-2998 colon. For the same compound, the TGI in the assay with SF-539 CNS, in the assay with SNB-19 CNS and in the assay with MALME-3M melanoma was above 100 µM each time.
As to `N#CC(N=Nc1ccccc1)c1nc2ccccc2o1` (configuration not stated), the TGI with OVCAR-8 ovarian was 79.4 µM; in the assay on NCI-H460 lung it was above 100 µM; with SR leukemia, above 100 µM; with A498 renal it was above 100 µM; in the assay with SF-295 CNS, 35.5 µM; in the assay with HCC-2998 colon, above 100 µM. Also, the TGI is 28.8 µM in the assay on SF-539 CNS, above 100 µM with SNB-19 CNS and above 100 µM in the assay on MALME-3M melanoma.
`NCCCc1c(-c2ccccc2)nc(N)[nH]c1=O`: the TGI with OVCAR-8 ovarian, with NCI-H460 lung, with SR leukemia, in the assay on A498 renal, in the assay with SF-295 CNS and in the assay with HCC-2998 colon was above 100 µM throughout. For the same compound, the TGI with SF-539 CNS, in the assay with SNB-19 CNS and in the assay with MALME-3M melanoma was above 100 µM throughout.
Consider `CCN(CC)CCSc1nc2c(c(=N)n1-c1ccccc1)c(=S)n(-c1ccccc1)c(=S)n2-c1ccccc1`, for which the TGI was 3.54 µM with OVCAR-8 ovarian; 3.86 µM in the assay with NCI-H460 lung; 0.936 µM in the assay on SR leukemia; 22.2 µM in the assay with A498 renal; 30.1 µM in the assay with SF-295 CNS; 3.15 µM with HCC-2998 colon. Moreover, the TGI in the assay with SF-539 CNS amounted to 9.57 µM; with SNB-19 CNS, 40.6 µM; in the assay on MALME-3M melanoma, 3.18 µM.
With `CC1(C)C(=O)C2(OS(=O)(=O)C(F)(F)F)CCC1C2` (configuration not stated), the TGI in the assay with OVCAR-8 ovarian, in the assay with NCI-H460 lung, with SR leukemia, in the assay with A498 renal, in the assay with SF-295 CNS and with HCC-2998 colon was above 100 µM each time. Also, the TGI in the assay on SF-539 CNS, with SNB-19 CNS and with MALME-3M melanoma was above 100 µM each time.
As to `COC(=O)c1ccc(CCc2cc(O)c(Br)cc2O)cc1`, the TGI was 30.9 µM with OVCAR-8 ovarian; 33.3 µM in the assay on NCI-H460 lung; 14.4 µM with SR leukemia; 40.7 µM in the assay on A498 renal; 28 µM with SF-295 CNS; 32.9 µM in the assay with HCC-2998 colon. Besides, the results for the TGI in the assay with SF-539 CNS, in the assay with SNB-19 CNS and with MALME-3M melanoma were 20.7 µM, 33.1 µM and 32.4 µM, respectively.
Regarding `CC[C@@]1(O)C(=O)OCc2c1cc1n(c2=O)Cc2c-1nc1ccccc1c2/C=N\NC(=O)C(N)Cc1cnc[nH]1` (some centres not stated), the TGI was 16.1 µM in the assay on OVCAR-8 ovarian; 4.8 µM in the assay with NCI-H460 lung; 0.387 µM in the assay with SR leukemia; 4.09 µM with A498 renal; above 67.5 µM with HCC-2998 colon; 0.538 µM with SF-539 CNS. The TGI with SNB-19 CNS is above 100 µM; in the assay with MALME-3M melanoma it was above 87.1 µM.
